# Assay results reported in article PMC10959927, “Platinum iodido drugs show potential anti-tumor activity, affecting cancer cell metabolism and inducing ROS and senescence in gastrointestinal cancer cells” (Communications Biology, 2024).
# “And” between values parts separate entries of the source, which are not always exact repeats. Equal entries are not always repeated.
# How the values were obtained:
# Type in all cases: cell-based, human
# PANC1 cells [1] = experiment: Ratio GSH/GSSG, colorimetric kit; settings: PANC1, 24, relative to Control = 1
# Protocol: (§1) GSH and GSSG levels were determined in AGS and PANC1 cells after 3 and 24 h of treatment with the compounds (using H2O2 as a positive control) with the Glutathione Colorimetric Detection Kit (ThermoFisher) following the manufacturer’s instructions. Thirty minutes after adding the Colorimetric Detection Reagent and the Reaction Mixture, the absorbance was read at 405 nm. A standard curve was generated with each assay to interpolate the sample results. To measure GSSG, standards and samples must be diluted with the Sample Diluent containing 2-vinylpyridine.
# AGS cells [2] = experiment: Ratio GSH/GSSG, colorimetric kit
# Protocol: as §1
# MKN45 cells = experiment: Immunofluorescence of γ-H2AX foci; settings: Fig. 3B; for foci/cell, number of cells in class: cell count
# Protocol: (§2) Cells (7 × 10^4) were seeded on 20 mm coverslips. […] Coverslips were incubated for 1 h with the primary antibody (Cell Signaling: H2AX Ser139 (#2595) and 53BP1 (#4937)) at room temperature, followed by a 1 h incubation with the appropriate secondary antibody. DNA was stained with DAPI. Fluorescence microscopy was performed using a NIKON Eclipse 90i. The image analysis was performed using the software program Nikon NIS-Elements and Image J.
# PANC1 cells [3] = experiment: Immunofluorescence of γ-H2AX and 53BP1 foci; settings: for foci/cell, share of cells in class (Suma 100) / foci/cell, number of cells in class: PANC1, Fig. 3B; for foci/cell, number of cells in class: cell count
# Protocol: as §2
# AGS cells [4] = experiment: Immunofluorescence of γ-H2AX and 53BP1 foci; settings: for foci/cell, share of cells in class (Suma 100) / foci/cell, number of cells in class: Fig. 3B; for foci/cell, number of cells in class: cell count
# Protocol: as §2
structure (smiles),measurement,setting,value
"[NH2][Pt]([NH2])([Cl])[Cl] [CDDP, cisplatin, reference compound]",GSH/GSSG,PANC1 cells [1],0.8133 and 0.9393 and 0.9531
same,GSH/GSSG,"AGS cells [2]; AGS, 3, relative to Control = 1",0.992 and 0.9971 and 1.026
same,GSH/GSSG,"AGS cells [2]; AGS, 24, relative to Control = 1",0.8767 and 0.8827 and 0.9433
same,"foci/cell, share of cells in class (Suma 100)",MKN45 cells; class 16-30 foci/cell,6.667
same,"foci/cell, number of cells in class",MKN45 cells; class 16-30 foci/cell,4
same,"foci/cell, share of cells in class (Suma 100)",MKN45 cells; class 31-45 foci/cell,13.3333
same,"foci/cell, number of cells in class",MKN45 cells; class 31-45 foci/cell,8
same,"foci/cell, share of cells in class (Suma 100)",MKN45 cells; class 46-60 foci/cell,16.6667
same,"foci/cell, number of cells in class",MKN45 cells; class 46-60 foci/cell,10
same,"foci/cell, share of cells in class (Suma 100)",MKN45 cells; class <15 foci/cell,0
same,"foci/cell, number of cells in class",MKN45 cells; class <15 foci/cell,0
same,"foci/cell, share of cells in class (Suma 100)",MKN45 cells; class >61 foci/cell,63.3333
same,"foci/cell, number of cells in class",MKN45 cells; class >61 foci/cell,38
same,foci/cell: number of cells with 16-30 foci,"PANC1 cells [3]; PANC1, Fig. S4B, cell counts",32
same,foci/cell: number of cells with 31-45 foci,"PANC1 cells [3]; PANC1, Fig. S4B, cell counts",36
same,foci/cell: number of cells with 46-60 foci,"PANC1 cells [3]; PANC1, Fig. S4B, cell counts",25
same,foci/cell: number of cells with <15 foci,"PANC1 cells [3]; PANC1, Fig. S4B, cell counts",21
same,foci/cell: number of cells with >61 foci,"PANC1 cells [3]; PANC1, Fig. S4B, cell counts",22
same,foci/cell: share of cells with 16-30 foci (Suma 100),"PANC1 cells [3]; PANC1, Fig. S4B, share of N",23.5294
same,foci/cell: share of cells with 31-45 foci (Suma 100),"PANC1 cells [3]; PANC1, Fig. S4B, share of N",26.4706
same,foci/cell: share of cells with 46-60 foci (Suma 100),"PANC1 cells [3]; PANC1, Fig. S4B, share of N",18.3824
same,foci/cell: share of cells with <15 foci (Suma 100),"PANC1 cells [3]; PANC1, Fig. S4B, share of N",15.4412
same,foci/cell: share of cells with >61 foci (Suma 100),"PANC1 cells [3]; PANC1, Fig. S4B, share of N",16.1765
same,"foci/cell, share of cells in class (Suma 100)",PANC1 cells [3]; class 16-30 foci/cell,10
same,"foci/cell, number of cells in class",PANC1 cells [3]; class 16-30 foci/cell,11
same,"foci/cell, share of cells in class (Suma 100)",PANC1 cells [3]; class 31-45 foci/cell,23.6364
same,"foci/cell, number of cells in class",PANC1 cells [3]; class 31-45 foci/cell,26
same,"foci/cell, share of cells in class (Suma 100)",PANC1 cells [3]; class 46-60 foci/cell,20
same,"foci/cell, number of cells in class",PANC1 cells [3]; class 46-60 foci/cell,22
same,"foci/cell, share of cells in class (Suma 100)",PANC1 cells [3]; class <15 foci/cell,6.364
same,"foci/cell, number of cells in class",PANC1 cells [3]; class <15 foci/cell,7
same,"foci/cell, share of cells in class (Suma 100)",PANC1 cells [3]; class >61 foci/cell,40
same,"foci/cell, number of cells in class",PANC1 cells [3]; class >61 foci/cell,44
same,"foci/cell, share of cells in class (Suma 100)",AGS cells [4]; class 16-30 foci/cell,23.0769
same,"foci/cell, number of cells in class",AGS cells [4]; class 16-30 foci/cell,18
same,"foci/cell, share of cells in class (Suma 100)",AGS cells [4]; class 31-45 foci/cell,26.9231
same,"foci/cell, number of cells in class",AGS cells [4]; class 31-45 foci/cell,21
same,"foci/cell, share of cells in class (Suma 100)",AGS cells [4]; class 46-60 foci/cell,21.7949
same,"foci/cell, number of cells in class",AGS cells [4]; class 46-60 foci/cell,17
same,"foci/cell, share of cells in class (Suma 100)",AGS cells [4]; class <15 foci/cell,21.7949
same,"foci/cell, number of cells in class",AGS cells [4]; class <15 foci/cell,17
same,"foci/cell, share of cells in class (Suma 100)",AGS cells [4]; class >61 foci/cell,6.41
same,"foci/cell, number of cells in class",AGS cells [4]; class >61 foci/cell,5
same,foci/cell: number of cells with 16-30 foci,"AGS cells [4]; Fig. S4B, cell counts",35
same,foci/cell: number of cells with 31-45 foci,"AGS cells [4]; Fig. S4B, cell counts",15
same,foci/cell: number of cells with 46-60 foci,"AGS cells [4]; Fig. S4B, cell counts",5
same,foci/cell: number of cells with <15 foci,"AGS cells [4]; Fig. S4B, cell counts",45
same,foci/cell: number of cells with >61 foci,"AGS cells [4]; Fig. S4B, cell counts",4
same,foci/cell: share of cells with 16-30 foci (Suma 100),"AGS cells [4]; Fig. S4B, share of N",33.6538
same,foci/cell: share of cells with 31-45 foci (Suma 100),"AGS cells [4]; Fig. S4B, share of N",14.4231
same,foci/cell: share of cells with 46-60 foci (Suma 100),"AGS cells [4]; Fig. S4B, share of N",4.808
same,foci/cell: share of cells with <15 foci (Suma 100),"AGS cells [4]; Fig. S4B, share of N",43.2692
same,foci/cell: share of cells with >61 foci (Suma 100),"AGS cells [4]; Fig. S4B, share of N",3.846
